Legend:
PHTX-09c s.c. xenograft = assay: 5F9 vcMMAE and CPT-11 in PHTX-09C s.c. xenografts (Study CPGC-11-EF07); conditions: for Days to 1000 mm^3 / Mean tumor volume ± S.E.M (mm3) / T/C / TGI: PHTX-09c
Protocol: (§6) The endpoints for each treatment group was either a) tumor volume reaches 10% body weight; or b) body weight loss of >20%. The projected tumor volume at the study initiation date was 200 mm^3.
Not greater than one day prior to dosing, all animals were weighed to the nearest gram and grouped. Dosing solutions were vortexed prior to each administration to ensure correct delivery of compound. Animals received approximately 0.1 ml doses administered I.V. using a 1 cc syringe, 25-30 gauge, ½-¾ inch in length. Animals were dosed based on an average body weight of 20 grams.
(§7) Tumor volume measurements were obtained twice per week using Vernier calipers (0.01 mm). Tumor volume was calculated using the formula:
(§8) Efficacy was evaluated in terms of % tumor growth inhibition (TGI) and tumor growth delay (TGD). TGI was assessed on an arbitrary day (when the maximum tumor volume (MTV of the control treatment group reaches the maximum allowable tumor volume), using the following formula:
(§9) TGD was assessed by calculating T−C, where T=mean time (in days) for treatment group tumors to reach a predetermined size, and where C=mean time (in days) for the control group tumors to reach a predetermined size (e.g., 1,000 mm^3).
(§10) To compare pairs of treatment groups, the following mixed-effects linear regression model was fit to the data using the maximum likelihood method:
The −2 log likelihood of the full model was compared to one without any treatment terms (reduced model) and the difference in the values was tested using a Chi-squared test. The degrees of freedom of the test were calculated as the difference between the degrees of freedom of the full model and that of the reduced model. The predicted differences in the log tumor values (Yijk−Yi0k, which can be interpreted as log10 (fold change from day 0)) were taken from the above models to calculate mean AUC values for each treatment group. A dAUC value was then calculated as:
(§11) For synergy analyses, the observed differences in the log tumor values were used to calculate AUC values for each animal. […] The AUC for the control, or vehicle, group was calculated using the predicted values from the pairwise models described above. To address the question of whether the effects of the combination treatments were synergistic, additive, or sub-additive relative to the individual treatments, the following statistics were calculated:
where Ak and Bk are the k^th animal in the individual treatment groups and ABk is the k^th animal in combination treatment group. AUCctl is the model-predicted AUC for the control group and was treated as a constant with no variability. […] The standard error of the synergy score was calculated as the square root of the sum of squared standard errors across groups A, B, and AB. The degrees of freedom were estimated using the Welch-Satterthwaite equation. P values were calculated by dividing the synergy score by its standard error and tested against a t-distribution (two-tailed) with the above-calculated degrees of freedom.

PHTX-21c s.c. xenograft [1] = assay: MLN0264 and 5-Fluorouracil in PHTX-21C s.c. xenografts (Study CPGC-11-EF01); format: in vivo, CB-17 SCID mice; conditions: for dAUC: reference vehicle
Protocol: (§1) Tumor volume was calculated using the formula: […]

[2] = test system: PHTX-249 Pa s.c. xenograft; assay: 5F9 vcMMAE and gemcitabine in PHTX-249 Pa s.c. xenografts (Study CPGC-13-EF05); format: in vivo, CB-17 SCID mice; conditions: group A: MLN0264 7.5 mg/kg QW; reference vehicle
Protocol: (§2) Day D0 was the first day of treatment.
as §1
(§3) A negative dAUC is interpreted as an increase in AUC relative to the reference. It is important to evaluate not only the P value, but also the dAUC. Comparisons with significant P values, but small dAUC values, may not be of interest.

PHTX-11c s.c. xenograft = assay: MLN0264 and CPT-11 in PHTX-11c s.c. xenografts (Study CPGC-12-EF01)
Source text: The objective of this study was to explore the combination activity in a model having moderate level of GCC antigen density yet resistance to the immunoconjugate alone.
as §6
Not greater than one day prior to dosing, all animals were weighed to the nearest gram and grouped. Dosing solutions were vortexed prior to each administration to ensure correct delivery of compound. Animals received approximately 0.1 ml doses administered I.V. using a 1 cc syringe, 25-30 gauge, ½-¾ inch in length.
Tumor volume measurements (0.01 mm) were obtained twice per week using Vernier calipers (0.01 mm). Tumor volume was calculated using the formula:
as §8, §9, §10
(§12) The predicted differences in the log tumor values (Yijk−Yi0k, which can be interpreted as log10 (fold change from day 0)) were taken from the above models to calculate mean AUC values for each treatment group. A dAUC value was then calculated as:
as §11
where Ak and Bk are the k^th animal in the individual treatment groups and ABk is the k^th animal in combination treatment group. AUCctl is the model-predicted AUC for the control group and was treated as a constant with no variability. The standard error of the synergy score was calculated as the square root of the sum of squared standard errors across groups A, B, and AB. The degrees of freedom were estimated using the Welch-Satterthwaite equation. P values were calculated by dividing the synergy score by its standard error and tested against a t-distribution (two-tailed) with the above-calculated degrees of freedom.
The effect was classified into four different categories. It was considered synergistic if the synergy score was less than 0 and additive if the synergy score wasn't statistically different from 0. […] Interval analysis, if requested, involved a specified treatment group and time interval compared with another treatment group and time interval. For a given group, time interval, and animal, the tumor growth rate per day was estimated by

[3] = test system: PHTX-249 Pa primary human pancreatic tumor xenograft; assay: Single-agent 5F9 vcMMAE in PHTX-249 Pa pancreatic xenograft; format: in vivo, mice
Source text: (§4) The purpose of this study was to evaluate in vivo anti-tumor activity induced by combined administration of the 5F9 vcMMAE immunoconjugate (sometimes referred to herein as “MLN0264”) and gemcitabine in mouse xenograft primary human tumor explants (PHTX models of pancreatic cancer. These models included tumor tissue from patients with wild-type and mutant KRAS. Five pancreatic PHTX were generated by Champions Oncology (Hackensack, N.J.) using their CTG platform. 2 PHTX models were developed in-house. GCC expression was evaluated in each of the 7 PHTX models using the automated IHC assay described above.
(§5) In vivo anti-tumor studies of single-agent 5F9 vcMMAE immunoconjugate was conducted in all seven of the pancreatic subcutanreous xenograft mouse models. Animals were administered vehicle, free MMAE at 0.135 mg/kg once weekly (QW), a non-GCC targeting ADC at 7.5 mg/kg QW, or 5F9 vcMMAE at 3.75 or 7.5 mg/kg QW. The results for single agent activity of the immunoconjugate in PHTX-215 Pa and PHTX-249 Pa models is shown in FIGS. 15A and 15B, respectively.

PHTX-21c s.c. xenograft [4] = assay: MLN0264 and CPT-11 in PHTX-21C s.c. xenografts (Study CPGC-11-EF04)
Protocol: as §6
Not greater than one day prior to dosing, all animals were weighed to the nearest gram and grouped. Dosing solutions were vortexed prior to each administration to ensure correct delivery of compound. Animals received approximately 0.1 ml doses administered I.V. using a 1 cc syringe, 27-30 gauge, ½-¾ inch in length.
as §7, §8
TGD was assessed by calculating T−C, where T=mean time (in days) for treatment group tumors to reach a predetermined size (e.g., 1,000 mm^3), and where C=mean time (in days) for the control group tumors to reach a predetermined size.
as §10, §12
For synergy analyses, the observed differences in the log tumor values were used to calculate AUC values for each animal. […] The AUC for the control, or vehicle, group was calculated using the predicted values from the pairwise models described above.

[5] = test system: PHTX-11c primary human mCRC tumor xenograft; assay: 5F9 vcMMAE single agent efficacy in PHTX-11c; format: in vivo, SCID mice
[6] = test system: CTG pancreatic PHTX models (Champions Oncology); assay: Single-agent 5F9 vcMMAE in Champions CTG pancreatic PHTX models; format: in vivo, mice
Source text: as §4, §5

[7] = test system: 293 GCC#2 tumor xenograft; assay: 5F9 vcMMAE single agent efficacy in 293 GCC#2 xenograft (Example 5); format: in vivo, SCID mice; conditions: dose 1.875-7.5 mg/kg, QW, T/C=volume of tumor/control
[8] = test system: PHTX-17c primary human mCRC tumor xenograft; assay: 5F9 vcMMAE single agent efficacy in PHTX-17c; format: in vivo, SCID mice
PHTX-17c s.c. xenograft = assay: MLN0264 and CPT-11 in PHTX-17C s.c. xenografts (Study CPGC-11-EF06); format: in vivo, CB-17 SCID mice
Protocol: as §1

[9] = test system: PHTX-249 Pa s.c. xenograft; assay: 5F9 vcMMAE and gemcitabine in PHTX-249 Pa s.c. xenografts (Study CPGC-13-EF08); format: in vivo, CB-17 SCID mice
Protocol: 264.4 ul stock Gemcitabine into 3135.6 ul NS.
as §2, §1, §3

[10] = test system: PHTX-215 Pa primary human pancreatic tumor xenograft; assay: Single-agent 5F9 vcMMAE in PHTX-215 Pa pancreatic xenograft; format: in vivo, mice
Source text: as §4, §5

293 GCC#2 tumors = assay: Efficacy study with auristatin conjugates in 293 GCC#2 tumors, q7d×4; format: in vivo, SCID mice; conditions: for T/C: treatment/control
Protocol: 293 GCC#2 tumor-bearing SCID mice were treated with 5F9 conjugates with vc MMAE, vcMMAF or mcMMAF at three doses in comparison with 209 conjugates of these toxins or with free toxins or vehicle control. Doses were administered iv on a q7d×4 schedule. Tumors were harvested at days 3, 7, 10, 13 and 17. […] Table 18 provides a summary of the results (TGI=tumor growth inhibition, T/C=treatment/control, TGD=tumor growth delay, CR/PR=complete response/partial response; p value=measure to judge statistical significance, NS=not significant).

[11] = MLN0264 7.5 mg/kg QW i.v., W1-W3
[12] = group A: MLN0264 7.5 mg/kg QW, reference vehicle
[13] = PHTX-21c, ML0264 3.75 mg/kg i.v. QW

5F9 vcMMAE: 5F9 mAb conjugated to MMAE using a vc (Val-Cit) linker; average drug loading about 3.6
single agent activity (PHTX-09c s.c. xenograft; PHTX-09c (FIGS. 8B and 8C)): strong | Days to 1000 mm^3 (PHTX-09c s.c. xenograft; ML0264 1.875 mg/kg i.v. QW ×3): >23 days | Mean tumor volume ± S.E.M (mm3) (PHTX-09c s.c. xenograft; ML0264 1.875 mg/kg i.v. QW ×3): 888.5 ± 126.2 mm3 | T/C (PHTX-09c s.c. xenograft; ML0264 1.875 mg/kg i.v. QW ×3): 0.82 | TGI (PHTX-09c s.c. xenograft; ML0264 1.875 mg/kg i.v. QW ×3): 18.1% | Days to 1000 mm^3 (PHTX-09c s.c. xenograft; ML0264 3.75 mg/kg i.v. QW ×3): >23 days | Mean tumor volume ± S.E.M (mm3) (PHTX-09c s.c. xenograft; ML0264 3.75 mg/kg i.v. QW ×3): 861.1 ± 155.9 mm3 | T/C (PHTX-09c s.c. xenograft; ML0264 3.75 mg/kg i.v. QW ×3): 0.79 | TGI (PHTX-09c s.c. xenograft; ML0264 3.75 mg/kg i.v. QW ×3): 20.6% | dAUC (PHTX-09c s.c. xenograft; Treated group A (ML0264 1.875 mg/kg) vs reference V (vehicle), percent decrease in AUC): 16.1% | dAUC (PHTX-09c s.c. xenograft; Treated group B (ML0264 3.75 mg/kg) vs reference V (vehicle)): 25.4% | single agent anti-tumor activity (PHTX-21c s.c. xenograft [1]; PHTX-21c, 3.75 mg/kg): relatively low anti-tumor activity | dAUC (PHTX-21c s.c. xenograft [1]; group C: MLN0264 3.75 mg/kg QW): 38.5% | dAUC (PHTX-21c s.c. xenograft [1]; group D: MLN0264 7.5 mg/kg QW): 74.0% | dAUC [2]: 26.4% | Days to 1000 mm^3 (PHTX-11c s.c. xenograft; [11]): 13.5 days | Mean tumor volume ± S.E.M (PHTX-11c s.c. xenograft; [11]): 1263.4 ± 115.8 mm3 | T/C (PHTX-11c s.c. xenograft; [11]): 0.62 | TGD (PHTX-11c s.c. xenograft; [11]): 4.7 days | TGI (PHTX-11c s.c. xenograft; [11]): 37.7% | single agent anti-tumor activity (PHTX-11c s.c. xenograft; PHTX-11c, 7.5 mg/kg): very low activity | dAUC (PHTX-11c s.c. xenograft; [12]): 22.6% | tumor growth inhibition ([3]; PHTX-249 Pa, by day 21): significant TGI versus vehicle or free MMAE | TGI, % ([3]; model PHTX-249, KRAS Mut G12D, QWx3, day 21): 47% | single agent anti-tumor activity (PHTX-21c s.c. xenograft [4]; PHTX-21c, 3.75 mg/kg): relatively low anti-tumor activity | Days to 1000 mm^3 (PHTX-21c s.c. xenograft [4]; [13]): >15 days | Mean tumor volume ± S.E.M (mm3) (PHTX-21c s.c. xenograft [4]; [13]): 869.1 ± 105.2 mm3 | T/C (PHTX-21c s.c. xenograft [4]; [13]): 0.64 | TGI (PHTX-21c s.c. xenograft [4]; [13]): 36.3% | dAUC (PHTX-21c s.c. xenograft [4]; Treated group A (ML0264 3.75 mg/kg) vs reference V (vehicle)): 25.1% | single agent sensitivity ([5]; 1.875-7.5 mg/kg I.V. QW×3 weeks): relatively resistant | T/C ([5]; dose 1.875-7.5 mg/kg, on BIW): 0.5 on | TGI, % ([6]; model CTG-0300, KRAS Mut G12V, QWx5, day 28): 64% | TGI, % ([6]; model CTG-0301, KRAS wild-type, QWx3, day 21): 24% | TGI, % ([6]; model CTG-0302, KRAS Mut G12R, QWx3, day 21): 36% | TGI, % ([6]; model CTG-0303, KRAS wild-type, QWx5, day 38): 45% | TGI, % ([6]; model CTG-0492, KRAS Mut G12V, QWx3, day 21): 62% | T/C [7]: 0.03 | single agent sensitivity ([8]; 0.9375 mg/kg-10 mg/kg I.V. QW×3 weeks): Moderate sensitivity | T/C ([8]; dose 0.938-10 mg/kg, QW, T/C=volume of tumor/control): 0.46 | Days to 1000 mm^3 (PHTX-17c s.c. xenograft; PHTX-17c, ML0264 7.5 mg/kg QW): >17 days | Mean tumor volume ± S.E.M (mm3) (PHTX-17c s.c. xenograft; PHTX-17c, ML0264 7.5 mg/kg QW): 886.1 ± 187.9 mm3 | T/C (PHTX-17c s.c. xenograft; PHTX-17c, ML0264 7.5 mg/kg QW): 0.49 | TGI (PHTX-17c s.c. xenograft; PHTX-17c, ML0264 7.5 mg/kg QW): 51% | dAUC (PHTX-17c s.c. xenograft; [12]): 28.9% | tumor regressions (animals) ([9]; PHTX-249 Pa (Studies CPGC-13-EF05/EF08), 5F9 vcMMAE 7.5 mg/kg, gemcitabine 15 mg/kg on days 1 and 3, alone or combined): no tumor regressions | dAUC [9, 12]: 28.9% | tumor regressions (animals) ([10]; PHTX-215 Pa (KRAS wt), 7.5 mg/kg QW): 3 out of 8 | tumor growth inhibition ([10]; PHTX-215 Pa, 7.5 mg/kg QW, by day 22): significantly great tumor growth inhibition (TGI) versus free MMAE | TGI, % ([10]; single agent, model PHTX-215, KRAS wild-type, QWx3, day 21): 79% | TGI (293 GCC#2 tumors; 75 μg/kg iv q7d×4): 54.5 | T/C (293 GCC#2 tumors; 75 μg/kg iv q7d×4): 0.45 | TGD (293 GCC#2 tumors; 75 μg/kg iv q7d×4, tumor growth delay): 4.4 | TGI (293 GCC#2 tumors; 150 μg/kg iv q7d×4): 83.5 | T/C (293 GCC#2 tumors; 150 μg/kg iv q7d×4): 0.17 | TGI (293 GCC#2 tumors; 300 μg/kg iv q7d×4): 96.9 | T/C (293 GCC#2 tumors; 300 μg/kg iv q7d×4): 0.03
